For series [1], the target named is Human Norepinephrine Transporter (NET) (Homo sapiens (Human), UniProt P23975). Kind of series: Norepinephrine Transporter functional antagonist uptake assay. It is filed as cell-based. Particulars: [3H]Norepinephrine uptake, MDCK cells expressing human recombinant NET. The method, then: Human Norepinephrine Transporter (NET) Functional Antagonist Uptake Assay was carried out at Panlabs Cerep (assay #302100). Human recombinant norepinephrine transporter expressed in MDCK cells were plated overnight. Test compound and/or vehicle was pre-incubated with cells (2×10E5/ml) in modified Tris-HEPES buffer pH 7.1 for 20 minutes at 25° C. and 25 nM [3H]Norepinephrine was then added for an additional 15 minute incubation period. A lysate was obtained from solubilized cells and counted to determine [3H]Norepinephrine uptake. Reduction of [3H]Norepinephrine uptake by 50 percent or more (≥50%) relative to 10 μM desipramine indicates significant inhibitory activity. Compounds are screened at 10, 3, 1, 0.3, 0.1, 0.03, 0.01 and 0.003 μM. These same concentrations are concurrently applied to a separate group of untreated cells and evaluated for possible compound-induced cytotoxicity only if significant inhibition of uptake is observed. IC50 values were determined by a non-linear, least squares regression analysis using MathIQ™ (IDBusiness Solutions Ltd., UK).

Series [2] is described as follows: High-throughput (HT) solubility determination. It is filed as physicochemical. Particulars: kinetic from dmso stock. The method, then:
The chromatographic system consists of an Agilent 1290 UPLC/DAD system and ChemStation software, both from Agilent Technologies, USA. The separations are carried out on a Supelco Ascentis Express C18, 30 mm×3.0 mm I.D., 2.7 μm HPLC column. The mobile phase consists of Potassium phosphate buffered at pH 7 (mobile phase A) and acetonitrile (mobile phase B). The column oven temperature is set to 30° C. and the UPLC analysis consists of a gradient. The injection volume is 2 μL and the spectrophotometric detection is set to 215 and 238 nm.
A 10 mM stock solution of the compound in DMSO is supplied for analysis. 2.5 μL of stock solution (10 mM) was diluted into 247.5 μL of organic co-solvents (10% MeCN/80% MeOH/10% DMSO, v/v/v) to create a standard solution of 100 μM. To create the solubility solutions, 4.1 μL of 10 mM DMSO stock solution was diluted into […] (PBS) (pH 7) solution. A second 4.1 μL aliquot of 10 mM DMSO stock solution was added to 196 μL of PBS (pH 2) solution. A third 4.1 μL aliquot of 10 mM DMSO stock solution was added to 196 μL of FaSSIF (pH 6.5) solution. Each solubility solution was sealed and shaken for 24 hours at 25° C. Filtered the equilibrated solubility solutions by centrifugation using a filter (0.45 μm, polypropylene). Placed 50 μL each of the 100 μM standard solution and the filtered equilibrated solubility solutions into a 384 well plate, and the plate was subsequently heat sealed.
Analyzed each standard and solubility solution by UPLC/DAD. The solubility value was calculated by the following equation: Solubility=(Peak area of sample/Peak area of standard)(Standard concentration)

Series [3] in a line: Rat screening IV/PO pharmacokinetics. The conditions noted are these: male, plasma, mean residence time, IV/PO procedure. It is filed as in vivo. As for the experimental part: Plasma pharmacokinetic parameters for clearance, volume of distribution, half-life, mean residence time (MRT) and oral bioavailability (% F)—were determined in rats from oral administration and IV administration studies. 4 male rats, typically weighing 225-260 gram, were fasted overnight prior to dosing. Compounds were prepared for oral and IV dosing by addition to a vehicle, depending on the dose used. For a typical preparation, 1 mg per mL (IV) or 1.5 mg per mL (oral) of test compound was added to vehicle comprised of 20% dimethyl sulfoxide (DMSO), 60% polyethylene glycol 400 (PEG400) and 20% water. IV formulation was administered to 2 rats via pre-cannulated jugular vein, and oral dosing was administered to 2 rats via oral gavage. Blood was collected by pre-cannulated artery, typically at predose, 2 min, 8 min, 15 min, 30 min, and 1, 2, 4, 6, and 8 hr postdose for IV, and at predose, 15 min, 30 min, and 1, 2, 4, 6, 8 hr for oral dosing. Samples were collected in K2EDTA tubes, stored on ice, and centrifuged. Plasma was transferred to a micro titer plate and stored at −70° C. until analysis. Plasma samples were extracted using protein precipitation and analyzed by liquid chromatography separation followed by mass spec detection (LCMS/MS), using a standard curve for each compound. Plasma pharmacokinetic parameters were calculated for IV and oral dosing data by non-compartmental methods. Oral bioavailability was determined as the ratio of the dose-normalized plasma area under the curve (AUC) following oral dosing vs. IV dosing.

The target in series [4] is human Factor XIa (Homo sapiens (Human), UniProt P03951). Kind of series: Factor XIa assay. The conditions noted are these: human Factor XIa 0.04 nM, GPR-AFC substrate, 25° C.; read-out: FXIa IC50. The series is classed as biochemical. The method, then: The effectiveness of a compound of the present invention as an inhibitor of Coagulation Factor XIa can be determined using a relevant purified serine protease, and an appropriate synthetic substrate. The rate of hydrolysis of the chromogenic or fluorogenic substrate by the relevant serine protease was measured both in the absence and presence of compounds of the present invention. Assays were conducted at room temperature or at 37° C. […] A decrease in the rate of fluorescence change in the presence of inhibitor is indicative of enzyme inhibition. Such methods are known to one skilled in the art. The results of this assay are expressed as the half-maximal inhibitory concentrations (IC50), or the inhibitory constant, Ki.
Compounds were pre-incubated for 30 minutes at 25° C. with human (0.04 nM) Factor XIa in 50 mM HEPES buffer with 150 mM sodium chloride, 5 mM calcium chloride, 0.1% PEG 8000, pH 7.4. Factor XIa enzymatic activity was determined by addition of the substrate glycine-proline-arginine-7-amido-4-trifluoromethylcoumarin (GPR-AFC) and measurement of the fluorescence at 400/505 nm after a 60 minute incubation at 25° C. The % inhibition for each data point was calculated from the data and analyzed using the log (inhibitor) vs. response four parameters equation to determine the half-maximal inhibitory concentrations (IC50). The IC50 were, converted to equilibrium inhibitory constants (Ki) using the Cheng-Prusoff equation.

Setting [5] is: FaSSIF pH 6.5, 24 hours at 25° C., read-out: pH 6.5 (FaSSIF) solubility.
Setting [6] is: phosphate buffered saline (PBS) pH 2, aqueous buffer, PBS pH 2, 24 hours at 25° C., read-out: pH 2 solubility.

pIC50: −log10 of the molar value. In brackets after ≈: the same amount, converted by molar mass. Where two headings read alike, the source gives them in different places.

Human Norepinephrine Transporter (NET), sequence (P23975 whole entry): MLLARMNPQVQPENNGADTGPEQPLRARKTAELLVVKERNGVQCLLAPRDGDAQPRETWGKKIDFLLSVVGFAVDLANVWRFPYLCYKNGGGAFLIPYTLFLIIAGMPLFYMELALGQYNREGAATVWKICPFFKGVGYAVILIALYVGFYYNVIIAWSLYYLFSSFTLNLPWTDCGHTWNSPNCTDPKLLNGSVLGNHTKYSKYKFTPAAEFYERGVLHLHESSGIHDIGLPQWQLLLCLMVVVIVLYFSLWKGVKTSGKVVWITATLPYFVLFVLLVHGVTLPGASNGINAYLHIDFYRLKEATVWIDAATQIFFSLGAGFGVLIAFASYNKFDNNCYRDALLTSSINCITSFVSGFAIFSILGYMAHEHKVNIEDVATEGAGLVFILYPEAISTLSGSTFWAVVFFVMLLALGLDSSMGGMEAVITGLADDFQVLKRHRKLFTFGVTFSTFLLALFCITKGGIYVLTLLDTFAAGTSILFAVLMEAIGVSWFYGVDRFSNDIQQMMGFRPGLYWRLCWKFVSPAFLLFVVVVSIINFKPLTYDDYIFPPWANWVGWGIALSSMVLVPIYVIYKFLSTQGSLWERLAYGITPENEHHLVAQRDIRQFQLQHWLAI
human Factor XIa, sequence (P03951 388-625): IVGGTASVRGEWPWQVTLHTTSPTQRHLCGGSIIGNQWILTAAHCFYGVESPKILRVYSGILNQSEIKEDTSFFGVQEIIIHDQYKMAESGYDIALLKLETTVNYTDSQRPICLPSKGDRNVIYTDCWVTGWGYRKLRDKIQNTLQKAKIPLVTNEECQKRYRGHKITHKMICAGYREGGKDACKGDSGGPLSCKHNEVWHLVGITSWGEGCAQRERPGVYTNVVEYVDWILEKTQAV
human Factor XIa, sequence (P03951 19-387 partner): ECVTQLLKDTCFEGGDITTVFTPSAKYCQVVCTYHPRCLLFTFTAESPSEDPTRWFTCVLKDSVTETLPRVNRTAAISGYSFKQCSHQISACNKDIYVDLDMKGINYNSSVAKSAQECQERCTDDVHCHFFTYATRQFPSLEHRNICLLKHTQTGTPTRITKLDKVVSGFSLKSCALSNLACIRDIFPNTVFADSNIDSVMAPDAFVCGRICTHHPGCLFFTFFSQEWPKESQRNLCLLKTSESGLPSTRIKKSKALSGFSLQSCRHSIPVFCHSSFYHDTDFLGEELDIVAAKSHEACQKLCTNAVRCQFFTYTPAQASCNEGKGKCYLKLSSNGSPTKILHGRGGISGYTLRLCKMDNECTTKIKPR

As to `COC(=O)Nc1ccc2c(c1)NC(=O)C(C)(C)CCC[C@H](c1ccc(-c3cc(F)ccc3-n3cc(C(F)(F)F)cn3)c[n+]1[O-])c1nc-2c(C)[nH]1` [Example 2, (R.Z)-5-(5-fluoro-2-(4-(trifluoromethyl)-1H-pyrazol-1-yl)phenyl)-2-(2^4-((methoxycarbonyl)amino)-1^5,5,5-trimethyl-4-oxo-1^1H-3-aza-1(4,2)-imidazola-2(1,2)-benzenacyclononaphane-9-yl)pyridine 1-oxide], the values for the pIC50 in series [1] and in series [4] were < 5.00 and 8.54, respectively. For the same compound, the solubility kinetic at 24 h in series [2] (setting [5]) is 53 µM (≈ 36.7 µg/mL); in series [2] (setting [6]), 209 µM (≈ 145 µg/mL). The MRT (in general, the average time that molecules of a dose stay in the body) in series [3] was determined as 5.7 h.
In the same order, the values of `COC(=O)Nc1ccc2c(c1)NC(=O)C(C)(C)CCC[C@H](c1ccc(-c3cc(Cl)ccc3-n3cc(C(F)(F)F)cn3)c[n+]1[O-])c1nc-2c(C)[nH]1` [Example 3] are < 5.00, 9.05, 27 µM (≈ 19.1 µg/mL), 159 µM (≈ 113 µg/mL) and 11 h.
Turning to `COC(=O)Nc1ccc2c(c1)NC(=O)C(C)(C)CCC[C@H](c1ccc(-c3cc(Cl)cnc3OC(F)F)c[n+]1[O-])c1nc-2c(C)[nH]1` [Example 6, (R,Z)-5′-chloro-2′-(difluoromethoxy)-6-(2^4-((methoxycarbonyl)amino)-1^5,5,5-trimethyl-4-oxo-1^1H-3-aza-1(4,2)-imidazola-2(1,2)-benzenacyclononaphane-9-yl)-[3,3′-bipyridine]1-oxide], the pIC50 – broadly, −log10 of the IC50, conventionally taken in molar units – is 6.74 in series [1] and 8.36 in series [4]. Further, the solubility kinetic at 24 h is 55 µM (≈ 35.3 µg/mL) in series [2] (setting [5]) and 143 µM (≈ 91.7 µg/mL) in series [2] (setting [6]). This compound displayed an MRT in series [3] of 5.6 h.
Turning to `COC(=O)Nc1ccc2c(c1)NC(=O)C(C)(C)CCC[C@H](c1ccc(-c3cc(F)ccc3-c3cnn(C(F)(F)F)c3)c[n+]1[O-])c1nc-2c(C)[nH]1` [Example 5, (R,Z)-5-(5-fluoro-2-(1-(trifluoromethyl)-1H-pyrazol-4-yl)phenyl)-2-(2^4-((methoxycarbonyl)amino)-1^5,5,5-trimethyl-4-oxo-1^1H-3-aza-1(4,2)-imidazola-2(1,2)-benzenacyclononaphane-9-yl)pyridine 1-oxide], the results for the pIC50 in series [1] and in series [4] were < 5.00 and 8.70, respectively. Moreover, the solubility kinetic at 24 h in series [2] (setting [5]) was determined as 50 µM (≈ 34.6 µg/mL); in series [2] (setting [6]) it was 146 µM (≈ 101 µg/mL). The MRT in series [3] was 4.5 h.
In the same order, the values of `COC(=O)Nc1ccc2c(c1)NC(=O)C(C)(C)CCC[C@H](c1ccc(-c3cc(Cl)ccc3-n3cc(C(F)F)cn3)c[n+]1[O-])c1nc-2c(C)[nH]1` [Example 4, (R,Z)-5-(5-chloro-2-(4-(difluoromethyl)-1H-pyrazol-1-yl)phenyl)-2-(2^4-((methoxycarbonyl)amino)-1^5,5,5-trimethyl-4-oxo-1^1H-3-aza-1(4,2)-imidazola-2(1,2)-benzenacyclononaphane-9-yl)pyridine 1-oxide] are 5.19, 9.05, 44 µM (≈ 30.4 µg/mL), 166 µM (≈ 115 µg/mL) and 2.7 h.
With `COC(=O)Nc1ccc2c(c1)NC(=O)C(C)(C)CCC[C@H](c1ccc(-c3c(-n4cc(C(F)(F)F)cn4)ccc(F)c3F)c[n+]1[O-])c1nc-2c(C)[nH]1` [Example 1, (R,Z)-5-(2,3-difluoro-6-(4-(trifluoromethyl)-1H-pyrazol-1-yl)phenyl)-2-(2^4-((methoxycarbonyl)amino)-1^5,5,5-trimethyl-4-oxo-1^1H-3-aza-1(4,2)-imidazola-2 (1,2)-benzenacyclononaphane-9-yl)pyridine 1-oxide], the pIC50 in series [1] was < 5.00; in series [4], 8.82. For the same compound, the solubility kinetic at 24 h in series [2] (setting [5]) is 36 µM (≈ 25.5 µg/mL); in series [2] (setting [6]), > 200 µM. This compound also came in with an MRT in series [3] of 5.8 h.

Values taken from US12344616B2, “Factor XIa inhibitors” (Merck Sharp & Dohme LLC, priority 2018, dated 2025).
